Data set [1] can be described thus: physchem. The conditions noted are these: PBS buffer.
Description: (§1) Solubility of the compound in PBS buffer incubated overnight at room temperature by HPLC based continuous shake-flask method
Data set [2] concerns the target T1, Acetylcholinesterase (Homo sapiens, UniProt P22303). The data set is described as follows: Inhibition of human AChE using acetylthiocholine iodide as substrate at 10 uM preincubated for 20 mins followed by substrate addition and measured every 30 sec for 3 mins by DTNB-based UV analysis relative to control. The conditions noted are these: time 23.0 min.
The target of data set [3] is T2, Cholinesterase (Homo sapiens, UniProt P06276). Briefly: Pseudo-irreversible inhibition of human BChE using butyrylthiocholineiodide as substrate assessed as rate constant k3 preincubated for 20 mins followed by substrate addition and measured every 30 sec for 3 mins by DTNB-based UV analysis. Particulars: time 23.0 min.
Data set [4] has as its target T1, Acetylcholinesterase.
Description: Inhibition of human AChE using acetylthiocholine iodide as substrate preincubated for 20 mins followed by substrate addition and measured every 30 sec for 3 mins by DTNB-based UV analysis
A short description of data set [5]: Neurotoxicity against mouse HT-22 cells assessed as cell viability at 0.75 to 25 uM by MTT assay. It counts as toxicity, cell-based. Particulars: ht-22, 25 µM, dose 0.75-25 µM. A general note: Formazan colour is commonly taken as a measure of viable cells.
Data set [6] concerns the target T2, Cholinesterase. The conditions noted are these: time 1.0 hrs.
Data set [7] relates to Mus musculus. Briefly: Anti-alzheimer activity against amyloid beta 25-35 induced learning impairments in Swiss mouse assessed as attenuation of long-term memory at 0.03 mg/kg, ip administered for 7 days and measured on day 10 by passive avoidance test. It is filed as functional, organism-based. Particulars: time 10.0 day.
The target in data set [8] is T3, Cannabinoid receptor 2 (Homo sapiens, UniProt P34972). The data set is described as follows: Displacement of [3H]CP55940 from human CB2 receptor expressed in HEK cells incubated for 3 hrs by competitive assay. It is filed as cell-based. Background: Displacement assays read how much labelled ligand stays bound in the presence of the test substance.
For data set [9], the system named is Mus musculus. The data set is described as follows: Anti-alzheimer activity against amyloid beta 25-35 induced learning impairments in Swiss mouse assessed as attenuation of spatial working memory at 0.03 mg/kg, ip administered for 7 days and measured on day 8 by Y-maze test. It counts as functional, organism-based. Particulars: time 8.0 day.
Data set [10] has as its target T2, Cholinesterase. Briefly: Pseudo-irreversible inhibition of human BChE using butyrylthiocholineiodide as substrate assessed as equilibrium constant Kc preincubated for 20 mins followed by substrate addition and measured every 30 sec for 3 mins by DTNB-based UV analysis. Particulars: time 23.0 min.
The target in data set [11] is T2, Cholinesterase. The data set is described as follows: Pseudo-irreversible inhibition of human BChE assessed as decarbamylation of enzyme by measuring rate constant k4 incubated for 1 hrs.
Data set [12] addresses T2, Cholinesterase.
Description: Inhibition of human BChE using butyrylthiocholineiodide as substrate preincubated for 20 mins followed by substrate addition and measured every 30 sec for 3 mins by DTNB-based UV analysis
The conditions of data set [13]: buffer.
Description: as §1
Data set [14] deals with T3, Cannabinoid receptor 2. Briefly: Binding affinity to human CB2 receptor expressed in HEK cells at 10 uM relative to control. It is filed as cell-based.
A short description of data set [15]: Neurotoxicity against mouse HT-22 cells assessed as cell viability at 1 to 25 uM by MTT assay. It is filed as toxicity, cell-based. Particulars: ht-22, 25 µM, dose 1-25 µM.

Molecules are shown by their SMILES. In brackets after ≈: the same amount, converted by molar mass. Activity calls are given as the source filed them. The rule behind the calls is not given here.

T3 sequence (P34972 whole entry): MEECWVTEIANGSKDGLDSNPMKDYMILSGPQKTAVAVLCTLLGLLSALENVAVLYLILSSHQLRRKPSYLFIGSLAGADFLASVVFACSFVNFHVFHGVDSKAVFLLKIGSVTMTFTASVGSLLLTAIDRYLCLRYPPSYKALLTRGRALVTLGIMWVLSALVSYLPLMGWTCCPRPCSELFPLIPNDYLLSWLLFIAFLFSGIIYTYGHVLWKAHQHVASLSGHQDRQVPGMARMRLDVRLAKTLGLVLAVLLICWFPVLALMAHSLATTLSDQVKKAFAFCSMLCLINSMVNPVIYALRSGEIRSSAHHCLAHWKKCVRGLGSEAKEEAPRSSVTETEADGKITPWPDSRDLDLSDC
T2 sequence (P06276 whole entry): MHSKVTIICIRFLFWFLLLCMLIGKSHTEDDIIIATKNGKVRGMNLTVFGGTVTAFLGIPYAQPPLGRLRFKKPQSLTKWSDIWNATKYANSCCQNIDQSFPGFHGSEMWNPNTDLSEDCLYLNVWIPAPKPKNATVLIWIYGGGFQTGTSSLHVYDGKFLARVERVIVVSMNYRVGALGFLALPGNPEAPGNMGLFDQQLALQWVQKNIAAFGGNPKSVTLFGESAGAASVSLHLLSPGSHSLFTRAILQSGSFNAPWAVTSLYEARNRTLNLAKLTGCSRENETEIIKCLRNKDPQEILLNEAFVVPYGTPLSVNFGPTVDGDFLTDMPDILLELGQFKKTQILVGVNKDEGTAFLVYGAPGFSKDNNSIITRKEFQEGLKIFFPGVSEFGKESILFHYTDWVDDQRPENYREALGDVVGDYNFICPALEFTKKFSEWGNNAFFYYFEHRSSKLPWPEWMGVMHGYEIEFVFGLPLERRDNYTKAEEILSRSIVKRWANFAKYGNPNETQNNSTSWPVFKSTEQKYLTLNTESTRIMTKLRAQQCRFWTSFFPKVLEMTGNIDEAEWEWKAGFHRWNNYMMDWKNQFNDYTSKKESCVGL
T1 sequence (P22303 whole entry): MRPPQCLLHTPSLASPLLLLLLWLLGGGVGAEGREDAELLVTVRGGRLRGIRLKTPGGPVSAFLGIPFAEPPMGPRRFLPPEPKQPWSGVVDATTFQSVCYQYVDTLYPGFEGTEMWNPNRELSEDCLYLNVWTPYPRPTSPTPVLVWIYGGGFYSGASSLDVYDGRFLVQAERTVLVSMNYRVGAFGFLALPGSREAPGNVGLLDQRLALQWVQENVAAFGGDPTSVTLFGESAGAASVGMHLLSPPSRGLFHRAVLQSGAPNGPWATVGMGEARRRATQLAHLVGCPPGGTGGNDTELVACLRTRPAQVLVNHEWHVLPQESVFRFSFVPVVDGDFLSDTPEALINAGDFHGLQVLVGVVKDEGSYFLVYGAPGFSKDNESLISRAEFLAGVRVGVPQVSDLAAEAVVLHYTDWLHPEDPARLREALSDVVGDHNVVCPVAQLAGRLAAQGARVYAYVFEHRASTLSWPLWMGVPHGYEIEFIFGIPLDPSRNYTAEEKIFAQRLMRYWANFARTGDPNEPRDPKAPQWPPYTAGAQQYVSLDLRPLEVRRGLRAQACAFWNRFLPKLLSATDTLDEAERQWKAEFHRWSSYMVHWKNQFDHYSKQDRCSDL

`CCCCCCCNC(=O)Oc1ccc2c(c1)CN1CCc3ccccc3C1N2C` (stereo unspecified): the solubility (thermodynamic) (commonly solubility found after equilibrating the solid with the medium) in data set [1] is < 1 µg/mL. Besides, the inhibition (as a rule, the change of the read-out against control, counted positive when it falls) in data set [2] is 39%.

For the compound `CCN(CC)C(=O)c1ccc2c(c1)nc(Cc1ccc(OC(=O)N3CCC3)cc1)n2CCC(C)C`, the solubility (thermodynamic) in data set [1] worked out at 7.2 µg/mL (≈ 15.1 µM). For the same compound, the values for the K in data set [3], in data set [10] and in data set [11] were 8.9 min⁻¹, 3 µM and 0.74 h⁻¹, respectively. Moreover, the values for the IC50 in data set [4] and in data set [8] were 631 nM and 5010 nM, respectively. Moreover, the Activity result in data set [5] is “Non-Toxic”. In addition, the T1/2 in data set [6] turned out to be 56.3 min. The outcome in data set [7] and in data set [9] was Active.

Turning to `CCN(CC)C(=O)c1ccc2c(c1)nc(Cc1ccc(OC(=O)NCCCCCCN3CCc4ccccc4C3)cc1)n2CCC(C)C`, the IC50 – broadly, the concentration at which inhibition is half-maximal – came to 9520 nM in data set [4] and 76.5 nM in data set [12]. Further, the solubility entry in data set [13] was “Insoluble”.

As to `CCCCCCCNC(=O)Oc1ccc(Cc2nc3cc(C(=O)N(CC)CC)ccc3n2CCC(C)C)cc1`, the solubility (thermodynamic) in data set [1] was < 1 µg/mL. The values for the IC50 in [4] and in data set [12] were 175 nM and 13.2 nM, respectively. Further, the Activity in data set [14] turned out to be 33%.

As for `CCN(CC)C(=O)c1ccc2c(c1)nc(Cc1ccc(OC(=O)N3CCCC3)cc1)n2CCC(C)C`, the solubility (thermodynamic) in data set [1] is 3.9 µg/mL (≈ 7.95 µM). This compound had an inhibition in data set [2] of 16%. In [14], the Activity was < 10%. For the same compound, the IC50 in data set [12] was 139 nM.

`CCCCCCCNC(=O)Oc1ccc(Cc2nc3cc(C(=O)N(CC)CC)ccc3n2CCCCN2CCCCC2)cc1` showed a solubility (thermodynamic) in data set [1] of 67 µg/mL (≈ 111 µM). Besides, the results for the IC50 in data set [4] and in [12] were 2150 nM and 2410 nM, respectively.

In the case of `CCCCCCCNC(=O)Oc1ccc(Cc2nc3cc(C(=O)N4CCCCC4)ccc3n2CCC(C)C)cc1`, in [1], the thermodynamic solubility is < 1 µg/mL. Besides, the IC50 in data set [4] stood at 58 nM; in [12], 30.6 nM.

For the compound `CCN(CC)C(=O)c1ccc2c(c1)nc(Cc1ccc(O)cc1)n2CCC(C)C`, the Activity entry in data set [15] was “Non-Toxic”.

The compound `CCCCCCCNC(=O)Oc1ccc(Cc2nc3cc(C(=O)Nc4ccccc4)ccc3n2CCC(C)C)cc1` yielded an inhibition in data set [2] of 49%. Besides, the IC50 in [12] came out at 15.5 nM. In addition, the solubility entry in data set [13] is given as “Insoluble”.

Consider `CCCCCCCNC(=O)Oc1ccc(Cc2nc3cc(C(=O)NCCC(C)C)ccc3n2CCC(C)C)cc1`, for which the solubility (thermodynamic) in data set [1] is < 1 µg/mL. Besides, in data set [2], the inhibition amounted to 55%. The IC50 in data set [12] came out at 3.7 nM.
